One assay deals with HLA-B7 (Homo sapiens, UniProt P01889). As to the kind of experiment: Assembly assay, HLA-B7. It is filed as binding. As for the experimental part: (§1) The binding affinity of synthetic peptides (Invitrogen, Carlsbad, Calif., USA) to HLA-A1, -A2, A3, or -A11 molecules metabolically labeled with [^35S]-methionine was measured in the assembly assay, as described previously (12). The assay is based on peptide-mediated stabilization of empty HLA molecules released upon cell lysis, from the TAP-deficient cell lines. Stably folded HLA-molecules were immune-precipitated using the HLA class I-specific, conformation-dependent mAb W6/32, and separated by isoelectric focusing (IEF) gel electrophoresis. MHC heavy chain bands were quantified using the ImageGauge Phosphorimager program (FUJI photo film Co., Carrollton, Tex., USA). The intensity of the band is proportional to the amount of peptide-bound class I MHC complex recovered during the assay. Subsequently, the extent of stabilization of the HLA-molecule is directly related to the binding affinity of the added peptide. The peptide concentration used to analyze the recovery of the HLA-molecules was 40, 4, 0.4, 0.04 μM for HLA-A1 and HLA-A11, and 100, 10, 1, 0.1, 0.01 μM for HLA-A2 and HLA-A3. The C50 value was subsequently calculated for each peptide as the peptide concentration sufficient for half maximal stabilization.
Binding of survivin derived peptides to HLA-B7 The amino acid sequence of the survivin protein was screened for peptides of nine to ten amino acids, with anchor residues according to the peptide binding motif of HLA-B7. Five peptides were selected and analyzed for their ability to stabilize HLA-B7 in the assembly assay. C50 values were estimated for each peptide as the peptide concentration needed for half maximal stabilization of HLA-B7 (table 4).

The next assay concerns the target HLA-A3 (Homo sapiens, UniProt P04439). The assay is described as follows: Assembly assay, HLA-A3. The following applies: for pEC50: Table 4, HLA-A3, read-out: C50. Format: binding. As to the method:
as §1

In assay [1] the test system is peptide epitope-specific interferon-γ releasing effector cells. The assay is described as follows: IFN-γ ELISPOT, Example 4 (PBL or TIL from cancer patients). It is filed as cell-based, human. As for the experimental part:
To extend the sensitivity of the ELISPOT assay, PBL were stimulated once in vitro prior to analysis. At day 0, PBL or crushed lymph nodes were thawed and plated as 2×10^6 cells in 2 ml/well in 24-well plates (Nunc, Roskilde, Denmark) in x-vivo medium (Bio Whittaker, Walkersville, Md.), […] heat-inactivated human serum, and 2 mM of L-glutamine in the presence of 10 μM of peptide. Two days later 20 IU/ml recombinant interleukin-2 (IL-2) (Chiron, Ratingen, Germany) was added to the cultures. The cultured cells were tested for reactivity in the ELISPOT on day 10.
The ELISPOT assay was used to quantify peptide epitope-specific interferon-γ releasing effector cells as previously described (16). Briefly, nitrocellulose bottomed 96-well plates (MultiScreen MAIP N45, Millipore, Hedehusene, Denmark) were coated with anti-IFN-γ antibody (1-D1K, Mabtech, Nacka, Sweden). The wells were washed, blocked by X-vivo medium, and the cells were added in duplicates at different cell concentrations. The peptides were then added to each well and the plates were incubated overnight. The following day, media was discarded and the wells were washed prior to addition of biotinylated secondary antibody (7-B6-1-Biotin, Mabtech). The plates were incubated for 2 hours, washed, and avidin-alkaline phosphatase conjugate (Calbiochem, Life Technologies, Inc. San Diego, Calif., USA) was added to each well. The plates were incubated at room temperature for one hour, washed, and the enzyme substrate NBT/BCIP (DakoCytomation Norden A/S, Glostrup, Denmark) was added to each well and incubated at RT for 5-10 min. Upon the emergence of dark purple spots, the reaction was terminated by washing with tap-water. The spots were counted using the ImmunoSpot® Series 2.0 Analyzer (CTL Analyzers, LLC, Cleveland, US) and the peptide specific CTL frequency could be calculated from the numbers of spot-forming cells. All assays were performed in duplicates for each peptide antigen.

For a further assay, the target named is T1, HLA-A1 (Homo sapiens, UniProt P04439, A114D/A174V/A182V/D101N/D185E/E176A/E190D/L180R/Q94H/R68K/S129P/T187R/V100A/V91M/W191G).
T1 construct: empty HLA molecules released upon cell lysis, from the TAP-deficient cell lines; endogenous in cells; host or cells: BM36.1 (TAP-defective cell line expressing HLA-A*0101 and HLA-B*3501)
The assay is described as follows: Assembly assay, HLA-A1. It is filed as binding. Conditions: for pEC50: Table 4, HLA-A1, read-out: C50. As for the experimental part:
as §1

Another assay deals with HLA-A11 (Homo sapiens, UniProt P04439, A114D/D185E/E176A/F33Y/L180Q/S129P/T187R). As to the kind of experiment: Assembly assay, HLA-A11. Format: binding. As to the method: as §1
Setting [2] is: HLA-A3, nine samples from melanoma patients (five PBL and four TIL).

pEC50: −log10 of the molar value. Like-named read-outs stand apart in the source and are kept apart here. No end group written: not given here. Some results are limits rather than exact numbers.

LPPAWQPFL [Sur6-14]: the pEC50 on HLA-B7 (Example 4, read-out: C50 (half maximal stabilization of HLA-B7)) is less than 4.00; at HLA-B7 (Table 4, HLA-B7, read-out: C50), less than 4.00.
With CPTENEPDL [Sur46-54], the “C50 (half maximal stabilization of HLA-B7)” value at HLA-B7 (Example 4) is on record as “did not bind”. The pEC50 on HLA-B7 (Table 4, HLA-B7, read-out: C50) was less than 4.00.
Regarding `CC[C@H](C)[C@H](NC(=O)[C@@H](N)CCCNC(=N)N)C(=O)N[C@@H](CO)C(=O)N[C@H](C(=O)N[C@@H](Cc1ccccc1)C(=O)N[C@@H](CCCCN)C(=O)N[C@@H](CC(N)=O)C(=O)N[C@@H](Cc1c[nH]c2ccccc12)C(=O)N1CCC[C@H]1C(=O)N[C@@H](CCCCN)C(=O)O)[C@@H](C)O` [Sur18K10], on HLA-A3, the “binding to HLA-A3, in words” value is recorded as “high affinity” and the pEC50 was 7.70. Besides, the ELISPOT response entry in assay [1] (setting [2]) is on record as “CTL reactivity was detected”. Also, in assay [1] (HLA-A3, twenty-seven melanoma patients analyzed), the responding patients result is on record as “six”.
Take `CC(C)C[C@H](NC(=O)[C@H](Cc1ccccc1)NC(=O)[C@H](CCC(=O)O)NC(=O)CNC(=O)[C@H](CC(C)C)NC(=O)[C@@H](NC(=O)[C@H](CC(C)C)NC(=O)[C@@H](N)CCC(=O)O)[C@@H](C)O)C(=O)N[C@@H](CCCCN)C(=O)O` [Sur 95-103]: on HLA-A3, the “binding to HLA-A3, in words” value is given as “bound weakly” and the pEC50 is less than 4.00. Also, the ELISPOT response entry in assay [1] (setting [2]) is “no immune responses”.
With `CC(C)C[C@H](NC(=O)[C@H](CCC(=O)O)NC(=O)[C@H](CCC(=O)O)NC(=O)[C@H](CO)NC(=O)[C@@H](N)CCC(N)=O)C(=O)N[C@H](C(=O)N[C@@H](CC(C)C)C(=O)NCC(=O)N[C@@H](CCC(=O)O)C(=O)N[C@@H](Cc1ccccc1)C(=O)O)[C@@H](C)O` [Sur92S2], at HLA-A1, the pEC50 was 4.00.
The same measure, in the same setting: for `CC(C)C[C@H](NC(=O)[C@H](CCC(=O)O)NC(=O)[C@H](CCC(=O)O)NC(=O)[C@@H](NC(=O)[C@@H](N)CCC(N)=O)[C@@H](C)O)C(=O)N[C@H](C(=O)N[C@@H](CC(C)C)C(=O)NCC(=O)N[C@@H](CCC(=O)O)C(=O)N[C@@H](Cc1ccccc1)C(=O)O)[C@@H](C)O` [Sur92T2] the value was 5.70.
On to `CC[C@H](C)[C@H](NC(=O)[C@@H](N)CCCCN)C(=O)N[C@@H](C)C(=O)N[C@@H](CCCCN)C(=O)N[C@@H](CCC(=O)O)C(=O)N[C@H](C(=O)N[C@@H](CC(N)=O)C(=O)N[C@@H](CC(N)=O)C(=O)N[C@@H](CCCCN)C(=O)N[C@@H](CCCCN)C(=O)O)[C@@H](C)O` [Sur 112-121], for which, on HLA-A3, the “binding to HLA-A3, in words” value is “high affinity” and the pEC50 was 6.00. Moreover, on HLA-A11, the “binding to HLA-A11, in words” value is “bound weakly”. At HLA-A11 (Table 4, HLA-A11, read-out: C50), the pEC50 is less than 4.00. Besides, in assay [1] (setting [2]), the ELISPOT response result is “no immune responses”.
With `CC(C)C[C@H](NC(=O)[C@H](CCC(=O)O)NC(=O)[C@H](CCC(=O)O)NC(=O)[C@@H](N)Cc1ccccc1)C(=O)N[C@H](C(=O)N[C@@H](CC(C)C)C(=O)NCC(=O)N[C@@H](CCC(=O)O)C(=O)N[C@@H](Cc1ccccc1)C(=O)O)[C@@H](C)O` [Sur93-101], at HLA-A1, the “binding to HLA-A1, in words” value is “low binding affinity” and the pEC50 was less than 4.00. Also, the ELISPOT response entry in assay [1] (HLA-A1, ten melanoma patients, data not shown) is listed as “no peptide-specific responses were detected”.
Regarding `CC(C)C[C@H](NC(=O)[C@@H](N)[C@@H](C)O)C(=O)N1CCC[C@H]1C(=O)N1CCC[C@H]1C(=O)N[C@@H](C)C(=O)N[C@@H](Cc1c[nH]c2ccccc12)C(=O)N[C@@H](CCC(N)=O)C(=O)N1CCC[C@H]1C(=O)N[C@@H](CCCCN)C(=O)O` [Sur5K9], at HLA-A3, the “binding to HLA-A3, in words” value is “high affinity” and the pEC50 was 5.70. Also, the ELISPOT response result in assay [1] (setting [2]) is recorded as “No responses were detected”.
`CC(C)C[C@H](NC(=O)[C@H](CC(=O)O)NC(=O)[C@@H]1CCCN1C(=O)[C@H](CCC(=O)O)NC(=O)[C@H](CC(N)=O)NC(=O)[C@H](CCC(=O)O)NC(=O)[C@@H](NC(=O)[C@@H]1CCCN1)[C@@H](C)O)C(=O)N[C@@H](C)C(=O)N[C@@H](Cc1ccc(O)cc1)C(=O)O` [Sur47Y10]: the pEC50 at HLA-A1 is 6.40.
Take `CC(C)C[C@H](N)C(=O)N[C@@H](C)C(=O)N[C@@H](CCC(N)=O)C(=O)N[C@@H](CS)C(=O)N[C@@H](Cc1ccccc1)C(=O)N[C@@H](Cc1ccccc1)C(=O)N[C@@H](CS)C(=O)N[C@@H](Cc1ccccc1)C(=O)N[C@@H](CCCCN)C(=O)O` [Sur 54-62]: the “binding to HLA-A11, in words” value on HLA-A11 was “high affinity”.
In the case of RPPIFIRRL [C7, reference compound], the pEC50 on HLA-B7 was 6.30.
For the compound `CC(C)C[C@H](NC(=O)[C@H](CCC(=O)O)NC(=O)[C@@H](NC(=O)[C@@H](N)Cc1ccccc1)[C@@H](C)O)C(=O)N[C@H](C(=O)N[C@@H](CC(C)C)C(=O)NCC(=O)N[C@@H](CCC(=O)O)C(=O)N[C@@H](Cc1ccccc1)C(=O)O)[C@@H](C)O` [Sur93T2], the “binding to HLA-A1, in words” value at HLA-A1 is recorded as “bound with high affinity”. For the same compound, the pEC50 on HLA-A1 is 6.00. The ELISPOT response entry in assay [1] (HLA-A1, Mel.A1-2) was “showed responses”; in assay [1] (HLA-A1, Mel.A1-3, PBL), “T-cell response”; in assay [1] (HLA-A1, Mel.A1-4/PBL) it was “responses were observed”.
With `CC(C)C[C@H](NC(=O)[C@H](CCC(=O)O)NC(=O)[C@H](CCC(=O)O)NC(=O)[C@H](Cc1ccccc1)NC(=O)[C@@H](N)CCC(N)=O)C(=O)N[C@H](C(=O)N[C@@H](CC(C)C)C(=O)NCC(=O)N[C@@H](CCC(=O)O)C(=O)N[C@@H](Cc1ccccc1)C(=O)O)[C@@H](C)O` [Sur92-101], on HLA-A1, the “binding to HLA-A1, in words” value is “bound with almost similar high affinity as a known positive control epitope” and the pEC50 was 5.70. Moreover, the ELISPOT response result in assay [1] (HLA-A1, Mel.A1-2) is reported as “showed responses”. Besides, the ELISPOT response result in assay [1] (HLA-A1, Mel.A1-3, PBL) is on record as “T-cell response”.
With `CC(C)C[C@H](NC(=O)[C@@H](N)CC(C)C)C(=O)N[C@@H](CCC(N)=O)C(=O)N[C@@H](CS)C(=O)N[C@@H](Cc1ccccc1)C(=O)N[C@@H](Cc1ccccc1)C(=O)N[C@@H](CS)C(=O)N[C@@H](Cc1ccccc1)C(=O)N[C@@H](CCCCN)C(=O)O` [Sur54L2], the “binding to HLA-A3, in words” value at HLA-A3 is given as “high affinity”. For the same compound, in assay [1] (setting [2]), the ELISPOT response entry is “No responses were detected”.
Consider ENEPDLAQCF [Sur49-58], for which the “binding to HLA-A1, in words” value on HLA-A1 is “non-binding”.
For `CC[C@H](C)[C@H](NC(=O)[C@H](Cc1ccccc1)NC(=O)CNC(=O)[C@H](C)NC(=O)[C@H](CCC(=O)O)NC(=O)[C@H](C)NC(=O)[C@@H](N)CCSC)C(=O)N[C@@H](Cc1c[nH]cn1)C(=O)N[C@@H](Cc1ccc(O)cc1)C(=O)O` [Sur38Y9], the pEC50 at HLA-A1 is 6.10.
As for EPDLAQCFF [Sur51-59], on HLA-B7 (Example 4), the “C50 (half maximal stabilization of HLA-B7)” value is “did not bind”. In addition, at HLA-B7 (Table 4, HLA-B7, read-out: C50), the pEC50 was less than 4.00.
As for `CC(C)C[C@H](NC(=O)[C@H](CCC(=O)O)NC(=O)[C@H](CO)NC(=O)[C@@H](N)Cc1ccccc1)C(=O)N[C@H](C(=O)N[C@@H](CC(C)C)C(=O)NCC(=O)N[C@@H](CCC(=O)O)C(=O)N[C@@H](Cc1ccccc1)C(=O)O)[C@@H](C)O` [Sur93S2], the pEC50 at HLA-A1 is 4.52.
The compound QPRAPIRPI [C6, reference compound] gave a pEC50 on HLA-B7 of 7.00.

Source of the values: patent US20070148184A1, “Survivin-derived peptides and use thereof” (priority 2003, published 2007).
